Data from patent publication US6017512A, “Radiolabeled peptides” (Diatide, Inc., priority 1997, dated 2000).
Numbered stars: 1 amine (or outer) side, 2 acyl side, 3 side chain; on linkers, the order of the positions; unused ones are H or OH. Bridge positions count the residues as written; N and C are the ends. Square brackets hold non-standard residues; d marks the D form. Peptide text beside a SMILES is read from it. * marks the point of attachment. hhCys(CH2CO) = O=C([C@H](CCCSCC(=O)[*:3])N[*:1])[*:2]; X9 = CC(C)(S)CNCCN(CCCCC(=O)*)CC(C)(C)S; X3 = CC(C)(S)CNCCN(CCCCCN*)CC(C)(C)S; NMeF = CN[C@@H](Cc1ccccc1)C(=O)O; hCys = N[C@@H](CCS)C(=O)O

Molecular target: T1, somatostatin receptors (Rattus norvegicus, UniProt P30680)
T1 construct: endogenous in cells; host or cells: AR42J rat pancreatic tumor cell line, membrane preparation
T1 sequence (P30680 whole entry): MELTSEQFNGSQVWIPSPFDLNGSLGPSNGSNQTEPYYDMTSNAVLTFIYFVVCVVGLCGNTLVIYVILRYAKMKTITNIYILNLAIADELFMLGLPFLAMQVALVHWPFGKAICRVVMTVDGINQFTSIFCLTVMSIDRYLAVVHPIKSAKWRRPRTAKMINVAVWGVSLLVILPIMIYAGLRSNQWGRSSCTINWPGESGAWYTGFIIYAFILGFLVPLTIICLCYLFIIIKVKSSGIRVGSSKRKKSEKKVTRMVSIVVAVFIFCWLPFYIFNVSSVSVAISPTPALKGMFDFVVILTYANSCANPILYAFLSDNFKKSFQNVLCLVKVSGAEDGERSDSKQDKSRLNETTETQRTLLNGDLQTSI
Experiment: Inhibition of binding of [125I-Tyr11]somatostatin-14 to AR42J rat pancreatic tumor cell membranes
Details: uncomplexed peptides, displacement of [125I-Tyr11]somatostatin-14 (0.5 nM)
Experimental: Inhibition of Binding of [^125 I-Tyr^11 ]somatostatin-14 to AR42J Rat Pancreatic Tumor Cell Membranes
The rat pancreatic tumor cell line AR42J which expresses the somatostatin receptor was cultured in Dulbecco's minimal essential media (DMEM) supplemented with 10% fetal bovine serum (FBS) and 8 mM glutamine in a humidified 5% CO2 atmosphere at 37° C. in T-flasks. Harvested cells were homogenized in cold 50 mM Tris-HCl buffer (pH 7.4) and the homogenate then centrifuged at 39,000 g for 10 min at 4° C. Pellets were washed once with buffer and then resuspended in an ice-cold solution of 10 mM Tris-HCl (pH 7.4). Equal aliquots of this cell membrane preparation were incubated with [^125 I-Tyr^11 ]somatostatin-14 (at a final concentration of 0.5 nM and 750,000 cpm/mL, at a specific activity of 2000 Ci/mmol, Amersham, Arlington Heights, Ill.) and peptide or peptide-rheniumcomplex at a final concentration of from 10^-11 M to 10^-6 M in a solution of 50 mM HEPES (pH 7.4) containing 1% bovine serum albumin (BSA), 5 mM MgCl2, Trasylol (200,000 International Units), bacitracin (0.02 mg/mL) and phenylmethylsulfonylfluoride (0.02 mg/mL) for 25 min at 30° C. Using a filtration manifold, this mixture was filtered through a polyethyleneimine-washed GC/F filter (Whatman, Maidstone, England), and the residue remaining on the filter washed thrice with 5 mL cold HEPES buffer. The filter and a sample of the filter washings were then counted in a gamma counter. To assess non-specific binding, the assay was performed in the presence of unlabeled somatostatin-14 at 200 nM. Data analysis including Hill plots of the data provided inhibition constants (see Bylund & Yamamura, "Methods of receptor binding", in Methods in Neurotransmitter Receptor Analysis, Yamamura et al., eds., Raven Press: New York, 1990).

Compound | Ki [nM]
C[C@@H](O)[C@@H]1NC(=O)[C@H](CCCCN)NC(=O)[C@@H](Cc2c[nH]c3ccccc23)NC(=O)[C@H](Cc2ccccc2)NC(=O)[C@H](Cc2ccccc2)NC(=O)CSC[C@@H](C(=O)NCCCCCN(CCNCC(C)(C)S)CC(C)(C)S)NC(=O)[C@H](Cc2ccccc2)NC1=O [CH2 CO.FFWD KTFC.[BAM]] ({CH2CO}-FF[dW]KTFC-X3; thioether N-7) | 1.9
C[C@@H](O)[C@@H]1NC(=O)[C@H](CCCCN)NC(=O)[C@@H](Cc2c[nH]c3ccccc23)NC(=O)[C@H](Cc2ccccc2)NC(=O)[C@H](Cc2ccccc2)NC(=O)CSCC[C@@H](C(=O)O)NC(=O)[C@H](Cc2ccccc2)NC1=O [CH2 CO.FFWD KTF.Hcy] ({CH2CO}-FF[dW]KTF[hCys]-OH; thioether N-7) | 9.8
C[C@@H](O)[C@@H]1NC(=O)[C@H](CCCCN)NC(=O)[C@@H](Cc2c[nH]c3ccccc23)NC(=O)[C@H](Cc2ccc(O)cc2)NC(=O)[C@H](Cc2ccccc2)NC(=O)CSC[C@@H](C(N)=O)NC(=O)[C@H](Cc2ccccc2)NC1=O [CH2 CO.FYWD KTFC.amide] ({CH2CO}-FY[dW]KTFC-NH2; thioether N-7) | 0.16
CC(C)[C@@H]1NC(=O)[C@H](CCCCN)NC(=O)[C@@H](Cc2c[nH]c3ccccc23)NC(=O)[C@H](Cc2ccc(O)cc2)NC(=O)[C@H](Cc2ccccc2)N(C)C(=O)[C@H](CCC(=O)NCCCCCN(CCNCC(C)(C)S)CC(C)(C)S)NC1=O [cyclo.(N--CH3)F.YWD KV.E.[BAM], cyclo.(N--CH3)Phe--Tyr--D--Trp--Lys--Val--Glu(BAM)] (cyclo([NMeF]Y[dW]KVE(X3))) | 2.6
C[C@@H](O)[C@@H]1NC(=O)[C@H](Cc2ccccc2)NC(=O)[C@H]([C@@H](C)O)NC(=O)[C@H](CCCCN)NC(=O)[C@@H](Cc2c[nH]c3ccccc23)NC(=O)[C@H](Cc2ccccc2)NC(=O)[C@H](Cc2ccccc2)NC(=O)[C@H](CC(N)=O)NC(=O)CSC[C@@H](C(=O)O)NC1=O [CH2 CO.NFFWD KTFTC] ({CH2CO}-NFF[dW]KTFTC-OH; thioether N-9) | 2.7
C[C@@H](O)[C@@H]1NC(=O)[C@H](CCCCN)NC(=O)[C@@H](Cc2c[nH]c3ccccc23)NC(=O)[C@H](Cc2ccccc2)NC(=O)[C@H](Cc2ccccc2)NC(=O)CSC[C@@H](C(N)=O)NC(=O)[C@H](Cc2ccccc2)NC1=O [CH2 CO.FFWD KTFC.amide] ({CH2CO}-FF[dW]KTFC-NH2; thioether N-7) | 0.45
CC(C)[C@@H]1NC(=O)[C@H](CCCCN)NC(=O)[C@@H](Cc2c[nH]c3ccccc23)NC(=O)[C@H](Cc2ccc(O)cc2)NC(=O)[C@H](CS)NC(=O)[C@H](CS)NC1=O [cyclo.CYWD KVC, cyclo Cys--Tyr--D--Trp--Lys--Val--Cys] (cyclo(CY[dW]KVC)) | 0.43
CC(C)[C@@H]1NC(=O)[C@H](CCCCN)NC(=O)[C@@H](Cc2c[nH]c3ccccc23)NC(=O)[C@H](Cc2ccc(O)cc2)NC(=O)[C@H](Cc2ccccc2)N(C)C(=O)[C@H](CCCCNC(=O)CCCCN(CCNCC(C)(C)S)CC(C)(C)S)NC1=O [cyclo.(N--CH3)F.YWD KV.K.[BAT], cyclo.(N--CH3)Phe--Tyr--D--Trp--Lys--Val--Lys(BAT)] (cyclo([NMeF]Y[dW]KVK(X9))) | 0.46
C[C@@H](O)[C@@H]1NC(=O)[C@H](CCCCN)NC(=O)[C@@H](Cc2c[nH]c3ccccc23)NC(=O)[C@H](Cc2ccccc2)NC(=O)[C@H](Cc2ccccc2)NC(=O)CSC[C@@H](C(=O)O)NC(=O)[C@H](Cc2ccccc2)NC1=O [CH2 CO.FFWD KTFC] ({CH2CO}-FF[dW]KTFC-OH; thioether N-7) | 4
C[C@@H](O)[C@@H]1NC(=O)[C@H](CCCCN)NC(=O)[C@@H](Cc2c[nH]c3ccccc23)NC(=O)[C@H](Cc2ccccc2)NC(=O)[C@H](Cc2ccccc2)NC(=O)CSCCC[C@@H](C(N)=O)NC(=O)[C@H](Cc2ccccc2)NC1=O [CH2 CO.FFWD KTF.Hhc.amide] (FF[dW]KTF[hhCys(CH2CO)]-NH2; lactam N-7) | 0.41
